{
  "source": "ChEMBL document CHEMBL1649118",
  "about": "“Tissue accumulation of cephalothin in burns: a comparative study by microdialysis of subcutaneous interstitial fluid cephalothin concentrations in burn patients and healthy volunteers” (Antimicrob Agents Chemother, 2009)",
  "key": {"[1]": {"test": "T>MIC in healthy human at 1g, iv administered as 5 mins infusion", "assay_type": "functional"}, "[2]": {"test": "Time during which concentration exceeded the 5 X MIC for Staphylococcus aureus in healthy human at 1g, iv administered as 5 mins infusion", "assay_type": "functional"}, "[3]": {"test": "Drug level in subcutaneous interstitial fluid of healthy human at 1 g, iv administered as 5 mins infusion measured after 240 min", "assay_type": "ADME, organism-based", "settings": "read-out: Drug uptake"}, "[4]": {"test": "Drug level in subcutaneous interstitial fluid at nonburnt site of patient at 1 g, iv administered as 5 mins infusion measured after 240 min", "assay_type": "ADME, organism-based", "settings": "human, read-out: Drug uptake"}, "[5]": {"test": "Plasma protein binding in burn patient at 1g, iv administered as 5 mins infusion", "assay_type": "ADME, organism-based", "settings": "human, read-out: PPB (converted)"}, "[6]": {"test": "T>MIC in Staphylococcus aureus infected burn patient at nonburnt tissue site at 1g, iv administered as 5 mins infusion", "assay_type": "functional"}, "[7]": {"test": "Plasma protein binding in healthy human at 1g, iv administered as 5 mins infusion", "assay_type": "ADME, organism-based", "settings": "read-out: PPB (converted)"}, "[8]": {"test": "Fraction unbound in burn patient interstitial fluid at burn site at 1g, iv administered as 5 mins infusion by microdialysis", "assay_type": "ADME, organism-based", "settings": "human, in vivo"}, "[9]": {"test": "Time during which concentration exceeded the 5 X MIC for Staphylococcus aureus infected burn patient at burnt tissue site at 1g, iv administered as 5 mins infusion", "assay_type": "functional"}, "[10]": {"test": "T>MIC in Staphylococcus aureus infected burn patient at burnt tissue site at 1g, iv administered as 5 mins infusion", "assay_type": "functional"}, "Staphylococcus aureus": {"test_system": "Staphylococcus aureus", "test": "Antimicrobial activity against Staphylococcus aureus", "assay_type": "functional"}, "[11]": {"test": "Time during which concentration exceeded the 5 X MIC for Staphylococcus aureus infected burn patient at nonburnt tissue site at 1g, iv administered as 5 mins infusion", "assay_type": "functional"}, "[12]": {"test": "Fraction unbound in healthy human interstitial fluid at 1g, iv administered as 5 mins infusion by microdialysis", "assay_type": "ADME, organism-based", "settings": "in vivo"}, "[13]": {"test": "Fraction unbound in burn patient interstitial fluid at nonburn site at 1g, iv administered as 5 mins infusion by microdialysis", "assay_type": "ADME, organism-based", "settings": "human, in vivo"}, "Plasma [14]": {"test_system": "Plasma", "test": "Fraction unbound in healthy human plasma at 1g, iv administered as 5 mins infusion by microdialysis", "assay_type": "ADME, organism-based", "settings": "in vivo"}, "[15]": {"test": "Drug level in subcutaneous interstitial fluid at burnt site of patient at 1 g, iv administered as 5 mins infusion measured after 240 min", "assay_type": "ADME, organism-based", "settings": "human, read-out: Drug uptake"}, "Plasma [16]": {"test_system": "Plasma", "test": "Fraction unbound in burn patient at 1g, iv administered as 5 mins infusion by microdialysis", "assay_type": "ADME, organism-based", "settings": "human, in vivo"}},
  "data": [
    {"smiles": "CC(=O)OCC1=C(C(=O)O)N2C(=O)[C@@H](NC(=O)Cc3cccs3)[C@H]2SC1", "note": "[CEPHALOTHIN]", "values": [
      {"measurement": "T>MIC", "setting": "[1]", "result": 160, "unit": "min"},
      {"measurement": "T", "setting": "[2]", "result": 96, "unit": "min"},
      {"measurement": "concentration at 4 h", "setting": "[3]", "result": 540, "unit": "ng/mL"},
      {"measurement": "concentration at 4 h", "setting": "[4]", "result": 3060, "unit": "ng/mL"},
      {"measurement": "fraction unbound at 5 min", "setting": "[5]", "result": 0.42},
      {"measurement": "T>MIC", "setting": "[6]", "result": 336, "unit": "min"},
      {"measurement": "fraction unbound at 5 min", "setting": "[7]", "result": 0.292},
      {"measurement": "Cp", "setting": "[8]", "result": 14.5, "unit": "mg/L"},
      {"measurement": "T", "setting": "[9]", "result": 191, "unit": "min"},
      {"measurement": "T>MIC", "setting": "[10]", "result": 285, "unit": "min"},
      {"measurement": "MIC", "setting": "Staphylococcus aureus", "result": 0.2, "unit": "µg/mL"},
      {"measurement": "T", "setting": "[11]", "result": 219, "unit": "min"},
      {"measurement": "Cp", "setting": "[12]", "result": 8.6, "unit": "mg/L"},
      {"measurement": "Cp", "setting": "[13]", "result": 8.9, "unit": "mg/L"},
      {"measurement": "Cp", "setting": "Plasma [14]", "result": 17.6, "unit": "mg/L"},
      {"measurement": "concentration at 4 h", "setting": "[15]", "result": 2840, "unit": "ng/mL"},
      {"measurement": "Cp", "setting": "Plasma [16]", "result": 38.7, "unit": "mg/L"}
    ]}
  ]
}
